Series [1] in a line: Passive membrane permeability through PAMPA artificial membrane, pH 7.4. The series is classed as in vitro ADME. The conditions noted are these: pH 7.4, 10 μmol, 20 hours at room temperature, mean of multiple measurements, read-out: PAMPA passive permeability Pe. An outline of the steps: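 Compound at 10 μmol in 0.01 M phosphate buffer pH 7.4 placed in donor wells over lecithin-phospholipid-impregnated PVDF filter, buffer in acceptor; 20 h at room temperature. Donor and acceptor levels measured by RP-HPLC-UV; Pe (cm/s) and membrane retention R (%) calculated.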
(PAMPA measures passive passage across an artificial lipid membrane.)

The target in the next series is CDK2/Cyclin A (Homo sapiens, UniProt P24941). As to the kind of experiment: Inhibition of CDK2/Cyclin A kinase activity (ADP-Glo). The series is classed as biochemical. Put shortly: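 Kinase preincubated with compound (11 points, 4-fold steps from 50 μM) for 10 minutes at 25° C. in kinase buffer A with DTT, then reacted 40-60 minutes at 25° C. with ATP and CDKtide, Histone H1 or PDKtide substrate. ADP formation read by ADP-Glo luminescence; IC50 from four-parameter fit.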
On the technique in general: ADP-Glo first removes unused ATP, then detects ADP through luciferase.

The nature of series [2]: Microsomal stability in human liver microsomes (HLM). The series is classed as in vitro ADME. The conditions noted are these: 1 μM test compound. As for the experimental part: The procedure for investigating the metabolism of selected compounds was carried out in microsomal fractions of the liver (of rats, mice, humans) in the presence of a phase I metabolism cofactor (NADPH).
The rate of enzymatic decomposition of the compound in liver microsomes in in vitro analysis was determined by keeping a reaction mixture comprising 0.5 mg/ml of pooled human, rat or mouse liver microsomes, 1 μM test compound, 1.5 mM […] (Carbosynth, UK, cat. no. NN108711101) and 1.5 mM magnesium chloride in 0.1 M sodium phosphate buffer (pH 7.4) in a solid-state thermostat at 37° C. (XenoTech, USA, order no. H2610, cat. no. R1000, cat. no. M1000). Incubation was carried out in three replicates.
To determine the stability of compounds under sample preparation conditions, an aliquot in two replicates with the test compound and a microsomal fraction devoid of the NADPH cofactor, which was incubated for 40 minutes at 37° C.
Reactions were stopped at 0, 10, 20, 30 and 40 min time points by way of adding an ice mixture of acetonitrile:methanol (3:1) comprising an internal standard.
Samples were then centrifuged to remove the precipitated protein, supernatants were analyzed using HPLC-MS/MS to determine in vitro clearance (CLint) of the compounds. The Agilent 6410 mass spectrometer (Agilent, USA) combined with the Agilent 1260 Infinity II HPLC liquid chromatograph (Agilent, USA) and a cooling autosampler controlled by MassHunter software (Agilent, USA) was used as an HPLC-MS/MS system. Chromatographic analysis was performed on a C18 reversed-phase HPLC column (Agilent, Waters or equivalent) in a gradient elution mode in a system of mobile phases: 0.1% formic acid in water/0.1% formic acid in acetonitrile, flow rate: 0.5 ml/min, column T=35° C. Mass spectrometric detection was performed with electrospray ionization in multiple reaction monitoring mode. Precursor ions, fragment ions and collision energies for each substance were selected experimentally.
A graph of dependence of the logarithmic ratio between substance's peak area and internal standard's peak area vs time was built. The dependent coefficient of this line corresponded to the elimination rate constant k, on the basis of which the in vitro clearance CLint was calculated:
Based on resulting in vitro clearance CLint values, the microsomal stability of the selected compounds for humans, rats and mice was concluded.

Where two headings read alike, the source gives them in different places.

`CN1CCCc2c(-c3nc(N[C@H]4CCCNC4)ncc3C(F)(F)F)c[nH]c2C1=O` [CDK7_953, 7-methyl-3-(2-{[(3S)-piperidin-3-yl]amino}-5-(trifluoromethyl)py-rimidin-4-yl)-1H,4H,5H,6H,7H, 8H-pyrrolo[2,3-c]azepin-8-one]: the Papp at 20 h, 10 μmol in series [1] was in the range of 1 to 5 ×10⁻⁶ cm/s. The IC50 at CDK2/Cyclin A (mean of multiple measurement series, ATP 50 μM, read-out: CDK2/Cyclin A IC50) is 5.83 µM; on CDK2/Cyclin A (mean value from several measurements, read-out: IC50 CDK2/Cyclin A), above 0.2 µM. The “In vitro clearance CLint (HLM)” value in series [2] is recorded as “A (Clint < 20 μl/(min · mg of protein))”.

The record behind these values is patent US20260137698A1, “CYCLIN-DEPENDENT KINASE 7 INHIBITORS” (JOINT STOCK COMPANY «BIOCAD», priority 2022, published 2026).
